# Measurements: patent US11312711B2, “Morpholine derivative” (Hoffmann-La Roche Inc., priority 2016, dated 2022)
# Read-outs that look alike come from different tables or passages of the source.
# How the values were obtained:
# [1] = target: mutant DAT (Mus musculus (Mouse), UniProt Q61327, A109V/F105C/L104V); conditions: cocaine-insensitive DAT; cited from earlier work
# [2] = target: hERG potassium channels (Homo sapiens (Human), UniProt Q12809); test: Whole-cell patch-clamp on hERG potassium channels in stably transfected CHO cells; type: cell-based
# hERG potassium channels, sequence (Q12809 whole entry): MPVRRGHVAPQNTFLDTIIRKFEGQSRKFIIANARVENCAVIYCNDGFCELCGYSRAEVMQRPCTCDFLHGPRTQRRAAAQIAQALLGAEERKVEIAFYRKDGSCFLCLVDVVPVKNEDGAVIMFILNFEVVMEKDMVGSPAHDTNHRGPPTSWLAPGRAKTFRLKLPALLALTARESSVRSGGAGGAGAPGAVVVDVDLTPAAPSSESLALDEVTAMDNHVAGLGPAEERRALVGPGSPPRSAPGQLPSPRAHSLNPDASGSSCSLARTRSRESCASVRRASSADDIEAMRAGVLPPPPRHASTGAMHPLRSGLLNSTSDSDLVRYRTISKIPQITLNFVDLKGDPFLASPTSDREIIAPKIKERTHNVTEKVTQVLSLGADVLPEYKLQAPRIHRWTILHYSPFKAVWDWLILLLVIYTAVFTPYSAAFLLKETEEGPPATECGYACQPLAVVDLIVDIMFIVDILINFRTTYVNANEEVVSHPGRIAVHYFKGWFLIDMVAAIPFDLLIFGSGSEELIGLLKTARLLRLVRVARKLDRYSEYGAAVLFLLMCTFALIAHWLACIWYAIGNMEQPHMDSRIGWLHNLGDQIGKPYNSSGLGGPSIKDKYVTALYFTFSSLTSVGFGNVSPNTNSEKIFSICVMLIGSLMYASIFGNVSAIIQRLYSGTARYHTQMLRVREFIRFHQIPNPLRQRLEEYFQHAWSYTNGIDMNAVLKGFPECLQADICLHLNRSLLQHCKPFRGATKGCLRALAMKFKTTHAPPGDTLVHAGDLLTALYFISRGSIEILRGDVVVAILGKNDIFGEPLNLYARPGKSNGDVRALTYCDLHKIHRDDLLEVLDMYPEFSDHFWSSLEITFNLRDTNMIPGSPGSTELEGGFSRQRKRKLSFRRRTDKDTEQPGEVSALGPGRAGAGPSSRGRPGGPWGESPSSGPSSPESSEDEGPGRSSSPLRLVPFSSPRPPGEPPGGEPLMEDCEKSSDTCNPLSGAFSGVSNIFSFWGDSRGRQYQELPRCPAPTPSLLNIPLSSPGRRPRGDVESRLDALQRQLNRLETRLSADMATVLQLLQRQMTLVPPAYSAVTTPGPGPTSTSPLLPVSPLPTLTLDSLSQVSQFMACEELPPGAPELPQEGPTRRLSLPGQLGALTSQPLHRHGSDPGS
# Description: The whole-cell patch-clamp technique was used to investigate the effects of the test items on hERG (human-ether-a-go-go related gene) potassium channels in stably transfected CHO cells near physiological temperature (36±1° C.). The effects of compounds on hERG K^+-current parameters were evaluated at 4 concentrations (0.3-3-30-300 μM) in at least 3 CHO cells stably expressing the hERG channel. For electrophysiological measurements cells were seeded onto 35 mm sterile culture dishes containing 2 ml culture medium without Hygromycin B. Cells were cultivated at a density that enabled single cells (without visible connections to neighbouring cells) to be measured. Cells were incubated at 37° C. in a humidified atmosphere with 5% CO2 (rel. humidity about 95%). The cells were continuously maintained in and passaged in sterile culture flasks containing nutrient mixture F-12 (DMEM/F-12 with L-Glutamine) supplemented with 10% foetal bovine serum and 10% penicillin/streptomycin solution. […] The 35 mm culture dishes upon which cells were seeded at a density allowing single cells to be recorded were placed on the dish holder of the microscope and continuously perfused (at approximately 1 ml/min) with the bath solution (sodium chloride 150 mM, potassium chloride 4 mM, calcium chloride 1.2 mM, magnesium chloride 1 mM, HEPES 10 mM, pH (NaOH) 7.4) at near physiological temperature (36±1° C.). After formation of a Gigaohm seal between the patch electrodes and individual hERG stably transfected CHO cells (pipette resistance range: 2.0 MΩ-7.0 MΩ; seal resistance range: >1 GΩ) the cell membrane across the pipette tip was ruptured to assure electrical access to the cell interior (whole-cell patch-configuration). In case the quality of the seal was poor, the process of seal formation was repeated with a different cell and a new pipette. […] This voltage protocol was run at least 10 times at intervals of 10 s. If current density was judged to be too low for measurement, another cell was recorded. […] During wash-in of the test item the voltage protocol indicated above was run continuously again at 10 s intervals until the steady-state level of block was reached. The four test item concentrations of the compound were applied sequentially to 3 cells in a cumulative manner. […] Based on the IC50 value the IC20 was estimated. Each concentration of the test item was analyzed in three experiments (n=3).
# [3] = target: human DAT (Homo sapiens (Human), UniProt Q01959); test: Binding to dopamine transporter (DAT) in vitro, [3H]-WIN35,428 SPA
# human DAT, sequence (Q01959 whole entry): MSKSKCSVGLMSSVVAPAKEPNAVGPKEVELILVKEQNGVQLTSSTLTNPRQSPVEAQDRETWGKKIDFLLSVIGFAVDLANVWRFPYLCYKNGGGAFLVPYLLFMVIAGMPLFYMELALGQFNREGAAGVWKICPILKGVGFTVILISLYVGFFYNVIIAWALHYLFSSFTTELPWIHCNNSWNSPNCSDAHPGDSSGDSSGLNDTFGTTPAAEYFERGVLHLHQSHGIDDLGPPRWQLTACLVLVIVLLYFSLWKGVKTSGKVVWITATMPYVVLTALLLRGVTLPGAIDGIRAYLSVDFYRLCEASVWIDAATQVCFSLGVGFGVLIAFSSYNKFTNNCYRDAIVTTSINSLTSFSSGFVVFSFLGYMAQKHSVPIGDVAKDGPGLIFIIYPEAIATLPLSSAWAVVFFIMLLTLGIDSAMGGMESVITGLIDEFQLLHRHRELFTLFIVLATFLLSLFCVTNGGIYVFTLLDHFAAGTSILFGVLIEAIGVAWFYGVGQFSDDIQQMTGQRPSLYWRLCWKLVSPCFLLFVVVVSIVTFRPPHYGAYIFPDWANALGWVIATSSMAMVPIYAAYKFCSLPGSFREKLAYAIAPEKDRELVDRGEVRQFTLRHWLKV
# Description: Binding to dopamine transporter (DAT) in vitro. Human embryonic kidney (HEK) 293 cells (Invitrogen, Zug, Switzerland) stably transfected with human DAT were cultured. The cells were collected and washed three times with phosphate-buffered saline (PBS). The pellets were frozen at −80° C. The pellets were then resuspended in 400 ml of 20 mM HEPES-NaOH, pH 7.4, that contained 10 mM EDTA at 4° C. […] Aliquots of the membrane stocks were frozen at −80° C. All assays were performed at least three times. The test compounds were diluted in […] of binding buffer (252 mM NaCl, 5.4 mM KCl, 20 mM Na2HPO4, 3.52 mM KH2PO4, pH 7.4) and 10 point dilution curves were made and transferred to 96-well white polystyrene assay plates (Sigma-Aldrich, Buchs, Switzerland). […] Twenty microliters of binding buffer alone in the assay plate defined the total binding, whereas binding in the presence of 10 μM indatraline defined nonspecific binding. Frozen DAT membrane stocks were thawed and resuspended to a concentration of approximately 0.04 mg protein/ml binding buffer (1:1 diluted in H2O) using a polytron tissue homogenizer. The membrane homogenates (40 μg/ml) were then lightly mixed for 5-30 min with polyvinyl toluene […] wheat germ agglutinin-coated scintillation proximity assay (WGASPA; Amersham Biosciences) beads at 7.7 mg beads/ml homogenate. One hundred thirty microliters of the membrane/bead mixture were added to each well of the assay plate that contained radioligand and test compounds (final volume in each well, 200 μl) to start the assay, which was incubated for approximately 2 h at room temperature with agitation. The assay plates were then counted in the PVT SPA counting mode of a Packard Topcount. […] Non-linear regression was used to fit the data to sigmoid curves and determine IC50 values for binding and uptake. Ki values for binding and uptake were calculated using the following Cheng-Prusoff equation: Ki=IC50/(1+[S]/Km).
# [4] = target: human TAAR1 (Homo sapiens (Human), UniProt Q96RJ0); test: cAMP functional assay in HEK293 cells expressing human TAAR1; type: cell-based; conditions: for EC50: cAMP, HEK293 cells expressing human TAAR1, read-out: hTAAR1 EC50
# human TAAR1, sequence (Q96RJ0 whole entry): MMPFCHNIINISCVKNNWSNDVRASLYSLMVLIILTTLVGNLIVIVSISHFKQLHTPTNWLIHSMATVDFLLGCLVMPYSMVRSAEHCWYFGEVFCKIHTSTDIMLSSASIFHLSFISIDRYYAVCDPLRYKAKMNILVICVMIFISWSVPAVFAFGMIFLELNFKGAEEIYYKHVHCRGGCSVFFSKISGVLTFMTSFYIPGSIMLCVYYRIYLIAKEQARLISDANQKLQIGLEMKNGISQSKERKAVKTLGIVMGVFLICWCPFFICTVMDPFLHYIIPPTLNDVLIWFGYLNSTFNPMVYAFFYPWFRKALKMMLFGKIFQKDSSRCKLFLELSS
# Description: The Expand High Fidelity PCR System (Roche Diagnostics) was used with 1.5 mM Mg^2+ and purified PCR products were cloned into pCR2.1-TOPO cloning vector (Invitrogen) following the instructions of the manufacturer. PCR products were subcloned into the pIRESneo2 vector (BD Clontech, Palo Alto, Calif.), and expression vectors were sequence verified before introduction in cell lines.
# HEK293 cells (ATCC #CRL-1573) were cultured essentially as described by Lindemann et al. (2005). For the generation of stably transfected cell lines HEK293 cells were transfected with the pIRESneo2 expression plasmids containing the TAAR coding sequences (described above) with Lipofectamine 2000 (Invitrogen) according to the instructions of the manufacturer, and 24 hrs post transfection the culture medium was supplemented with 1 mg/ml G418 (Sigma, Buchs, Switzerland). After a culture period of about 10 d clones were isolated, expanded and tested for responsiveness to trace amines (all compounds purchased from Sigma) with the cAMP Biotrak Enzyme immunoassay (EIA) System (Amersham) following the non-acetylation EIA procedure provided by the manufacturer.
# cAMP measurements were performed as described previously (Revel et al., Proc. Natl. Acad. Sci. USA 2011, 108, 8485-8490). In brief, cells that expressed human TAAR1 were plated on 96-well plates (BIOCOAT 6640; Becton Dickinson, Allschwil, Switzerland) and incubated for 20 h at 37° C. Prior to stimulation of the cells with a broad concentration range of agonists for 30 min at 37° C., the cells were washed with PBS and preincubated with PBS that contained 1 mM 3-isobutyl-1-methylxanthine for 10 min at 37° C. and 5% CO2. Stimulation with 0.2% DMSO was set as the basal level, and the effect of 30 μM β-PEA was set as the maximal response. […] Finally, the plates were read with a luminometer (1420 Multilabel counter; PerkinElmer, Schwerzenbach, Switzerland), and the amount of cAMP was calculated. […]
compound,measurement,setting,value
COC(=O)[C@H]1[C@@H](OC(=O)c2ccccc2)C[C@@H]2CC[C@H]1N2C [cocaine],lower affinity of mutant DAT for cocaine relative to wild-type DAT,[1],89 fold
5-Chloro-N-[4-[(2S)-morpholin-2-yl]phenyl]pyridine-2-carboxamide [Example 12],Ratio hERG IC20/hTAAR1 EC50,[2],15
same,IC20,[2]; estimated based on the IC50 value,3.21 µM
same,hERG selectivity ratio versus hTAAR1 EC50,[2]; hERG IC20 versus hTAAR1 EC50,15 fold
same,IC50,"[2]; patch-clamp, CHO cells, 36±1° C.",14.3 µM
same,Ratio DAT Ki/hTAAR1 EC50,[3],8
same,DAT selectivity ratio versus hTAAR1 EC50,[3]; DAT Ki versus hTAAR1 EC50,8 fold
same,Ki,"[3]; [3H]-WIN35,428 radioligand",1.78 µM
same,hTAAR1 efficacy,"[4]; % agonist activity, β-phenylethylamine = 100% agonism",40%
same,EC50,[4]; listed as Comparative example 12,0.212 µM
same,EC50,[4],0.212 µM
